Data taken from patent US7125847B1, “Mechanically activated channel blocker” (priority 2000, dated 2006).
Where “and” joins values, the source holds several entries; their conditions need not be identical. Equal values may be shown once.

Legend:
ventricular myocytes = assay: Myocyte volume by video microscopy in CHF rabbit ventricular myocytes; assay type: cell-based; settings: 0.4 μM
Method: Myocyte volume was determined by visualization with an inverted Nikon Diaphot microscope equipped with Hoffman modulation optics and a high resolution TV camera coupled to a video frame-grabber. Images were captured on-line each time a ramp or step voltage clamp protocol was performed using a program written in C and assembler and linked to ASYST voltage-clamp software. A combination of commercial (MOCHA; SPSS) and custom (ASYST) programs were used to determine cell width, length, and area of the image. GsMTx-4 produced a cell volume reduction that is ˜40% of that produced by 1.5 T […] saline.

[1] = tested on: stretch-activated channels (SACs); assay: Outside-out patch clamp of stretch-activated channels in adult rat astrocytes; assay type: cell-based
Method: This embodiment describes the effect of the peptide GsMTx-4 variant (SEQ ID NO:1) on SACs. To illustrate this, adult rat astrocytes which are known to have SACs, were used. Adult rat astrocytes were cultured according to standard methods. Briefly, activated adult astrocytes isolated from gelatin-sponge implants from adult Sprague-Dawley rat brains obtained according to the method of Langan et al. (1995, Glia, 14:174–184) were used at passage numbers 2–4. Astrocytes were maintained in DMEM, 10% fetal bovine serum and 1% Penicillin/Streptomycin and were used in experiments between 2 and 5 days after passage. Cells between passage 4 and 35 expressed SACs with the same properties Both stellate process bearing cells and flat polygonal (fibroblast-like) cells were used.
The cultured astrocytes were used for single channel and whole cell recorndings. For single channel patch clamp, patch voltage was controlled by an Axopatch 200B (Axon Instruments, Calif.) and currents were recorded directly onto computer disk via a Labmaster DMA Ver. B (Scientific Instruments, Calif.) board controlled by pClamp6-Clampex acquisition software (Axon Instruments, California). Currents were sampled at 10 KHz and low-pass filtered at 2 KHz through the 4 pole Bessel filter on the Axopatch 200B. Experimental voltage protocols were controlled by pClamp6-Clampex. All potentials are defined with respect to the extracellular surface.
Electrodes were pulled on a Model PC-84 pipette puller (Brown-Flaming Instruments, Calif.), painted with Sylgard 184 (Dow Corning Corp. Midland Mich.) and fire polished. Electrodes were filled with KCl saline (KCl 140 mM, EGTA 5 mM, MgSO4 2 mM, Hepes 10 mM, pH 7.3) and had resistances ranging from 3–8 MWBath saline consisted of NaCl 140 mM, KCl 5 mM, MgSO4 1 mM, CaCl2 1 mM, glucose 6 mM and Hepes 10 mM, pH 7.3.
Pressure and suction were applied to the pipette by a pressure clamp. Pressure values represent pressure in the pipette, i.e., the intracellular side of the membrane in outside-out patches. Suction applied to a cell-attached patch has the same sign as pressure applied to an outside-out patch. The rise time of pressure changes at the tip were determined by monitoring the rate of current change when pressure steps were applied to an electrode containing 150 mM KCl solution and placed in a water bath. The t10-90 was ˜5 ms as determined by exponential fits to the current decay. Perfusion of toxin samples was performed by a pressurized bath perfusion system BPS-8 (ALA scientific instruments, NY) with 8 separate channels.
Off-line data analysis was performed with pClamp6 analysis software and Origin 5.0. Maximal unitary channel currents were determined via Guassian fits to the peaks of all points amplitude histograms generated from records containing 1–3 channels. […] Some of these records were analyzed by determining all of the step-like changes in current during the pressure application and selecting the average maximal current level as the unitary current. The data analyzed by this method was in good agreement with the unitary current levels determined by analysis of all points amplitude histograms from single channel patches.
The outside out patches from adult astrocytes as described above were used for testing the HPLC fractions obtained in Example 1. The HPLC fractions were lyophilized, redissolved at a 1:1000 dilution and perfused onto outside out patches. […] The fraction containing the single peak in FIG. 1D was then tested for activity against SACs. […] The patch was held at −50 mV, and the pressure pulse is shown above the records.
The entire experiment is comprised of 60 pressure steps: steps 1–20 occur before GsMTx-4 application; steps 21–38 while GsMTx-4 is being perfused; steps 39–60 occur during washout. Each 500 ms pressure step was separated by 1.5 seconds at 0 pressure.
The association rate of the toxin was determined by applying GsMTx-4 to an outside-out patch while the channels were activated by stretch (FIG. 5). […]

[2] = tested on: swelling-activated currents in ventricular myocytes; assay: Perforated patch whole-cell swelling-activated currents in ventricular myocytes from rabbits with aortic regurgitation-induced CHF; assay type: cell-based, rabbit; settings: 0.4 μM
Method: Ventricular myocytes were freshly isolated from New Zealand white rabbits with aortic regurgitation induced congestive heart failure using a collagenase-pronase dispersion method (Clemo et al., 1997, supra). Cells were stored in a modified Kraft-Bruhe solution (KOH 132 mM, glutamic acid 120 mM, KCl 2.5 mM, KH2PO4 10 mM, MgSO4 1.8 mM, K2EGTA 0.5 mM, glucose 11 mM, taurine 10 mM, Hepes 10 mM, pH 7.2). Myocytes were used within 6 h of harvesting and only quiescent cells with no evidence of membrane blebbing were selected for study.
Swelling activated currents were measured in myocytes according to the method of Clemo & Baumgarten (1997). Briefly, electrodes were pulled from glass capillaries to give a final tip diameter of […] and a resistance of 0.5–1 MW when filled with the standard electrode filling solution (K aspartate 120 mM, KCl 10 mM, NaCl 10 mM, MgSO4 3 mM, Hepes 10 mM, pH 7.1). Whole cell currents were recorded using an Axoclamp 200A. Pulse and ramp protocols, voltage clamp data acquisition and off-line data analysis were controlled with software written in ASYST. Both step and ramp voltage clamp protocols were applied with a holding potential of −80 mV. Currents were digitized at 1 KHz and low-pass filtered at 200 Hz. Whole cell currents were recorded using the amphotericin perforated patch technique. Solution changes were performed by bath perfusion that was completed within 10 s. The standard bath solution contained (NaCl 65 mM, KCl 5 mM, CaSO4 2.5 mM, MgSO4 0.5 mM, glucose 10 mM and Hepes 10 mM pH 7.2, and 130 mM (IT) or 283 mM (1.5 T) mannitol to control the osmolarity. Isotonic osmolarity was taken as 296 mosm (IT) and 444 mosm for hypertonic solution (1.5 T).
The myocytes were exposed to 1.0 T and 1.5 T solution in the absence (1.0 TC, 1.5 TC) and presence (1.0 TTX, 1.5 TTX) of 0.4 μM GsMTx-4. […] However, whole cell current was unaffected by GsMTx-4 when swelling-activated currents were inactivated by 1.5 T hypertonic saline (FIG. 9Bd). […] The remaining inward current is largely. ICI,swell. […]

GCLEFWWKCNPNDDKCCRPKLKCSKLFKLCNFSFGK [GsMTx-4]
cell volume reduction relative to that produced by 1.5 T saline (ventricular myocytes): ~40%
time constant of current decay during GsMTx-4 application (association) ([1]; 5 μM toxin, outside-out patches held at −50 mV, single exponential fit): 594 ± 10 ms
average SAC current when GsMTx-4 was applied ([1]; 7 patches, −50 mV, 2.04±0.14 pA prior to application): 0.17±0.02 pA
block of SACs ([1]; HPLC fractions at 1:1000 dilution relative to whole venom, outside-out patches): the block was complete
association constant ka ([1]; assuming 1:1 binding, from time constant at 5 μM): 340000 M⁻¹ s⁻¹ and 330000 M⁻¹ s⁻¹
ratio of blocked to unblocked current I/I0 ([1]; data of FIG. 6): 0.083
dissociation constant kd ([1]; from recovery kinetics on washout): 0.21 s⁻¹
average SAC current after GsMTx-4 washout ([1]; last 8 pressure steps, 10 seconds after washout): 2.28±0.17 pA
calculated equilibrium constant KD=kd/ka ([1]; ratio of rate constants): 631 ± 240 nM
Kd ([1]; single binding site model, read-out: binding constant Kd from I/I0): 415 nM
effect on inward ICir,swell ([2]; 1.0 T): significant reduction
effect on outward ICI,swell ([2]; 1.0 T): no effect
effect on whole cell current when swelling-activated currents inactivated ([2]; 1.5 T hypertonic saline): unaffected
